Structures are written as SMILES.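 Test compounds were applied to cells in 96-well plates for 48 hours at 5 doses. TGI marks complete inhibition of growth.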 Bounds are passed on as bounds.

Test systems include BT-549 breast; SNB-78 CNS; KM20L2 colon; P388 leukemia; XF 498 CNS; SN12K1 renal; P388/ADR leukemia.
Assay in all cases: NCI tumour cell line growth inhibition, 48 h

The compound `COC(=O)N1CC2C3C4CC(C(c5ccccc5)=C4c4ccccc4)C3C21` (stereo unspecified) yielded a TGI in the test with BT-549 breast of 31.4 µM.

Compound `COC(=O)c1cnc(Cl)cn1` gave a TGI in the test on BT-549 breast of over 100 µM.

For the compound `CC(C)C(N)=O`, the TGI with SNB-78 CNS was over 5000 µM.

As for `O=C(O)/C(Cc1ccc([N+](=O)[O-])cc1)=N\O`, the TGI in the test with BT-549 breast is over 100 µM.

Consider `CCOC(=O)CC1(c2cccc3ccccc23)OC(=O)c2ccccc21` (stereo unspecified), for which the TGI with SNB-78 CNS and in the test with KM20L2 colon was over 100 µM in each case.

In turn, `O=C(O)CC1NCc2cc3ccccc3nc21` (stereo unspecified) registered a TGI in the test with BT-549 breast of over 100 µM.

For the compound `CC(=O)NC1=C[C@@H]([C@H]2COC(C)(C)O2)OC1=O`, the TGI in the test on SNB-78 CNS, in the test with P388 leukemia, with XF 498 CNS, in the test with SN12K1 renal, in the test on KM20L2 colon and in the test with P388/ADR leukemia was over 100 µM in each case.

Compound `O=C1Nc2ccc(Cl)cc2/C1=C\c1c(Cl)nc2sccn12` had a TGI in the test with BT-549 breast of over 100 µM.

As for `C=C(OC1C(C)=C2C(C1OC(=O)CCCCCCC)C(C)(OC(C)=O)CC(OC(=O)CCC)C1(O)C2OC(=O)C1(C)O)/C(C)=C/C` (stereo unspecified), the TGI in the test on SNB-78 CNS turned out to be 19.1 µM; in the test with P388 leukemia, 0.993 µM; in the test with XF 498 CNS it was 8.97 µM; in the test on SN12K1 renal it was 0.0786 µM; in the test with KM20L2 colon, 1.23 µM; in the test on P388/ADR leukemia, 1.84 µM.

`c1csc(C[N+]23CN4CN(CN(C4)C2)C3)c1` yielded a TGI in the test with KM20L2 colon of 55.7 µM.

The values above are taken from PubChem BioAssay (NCI).
